Source: PMC10112881 (Cell reports, 2023)
Where two headings read alike, the source gives them in different places.

Assays:
[1] = target: D3 (Homo sapiens, UniProt P35462); test: G protein dissociation BRET assay; format: cell-based; conditions: relative to dopamine
[2] = target: α2B (Homo sapiens, UniProt P18089); test: G protein dissociation BRET assay; format: cell-based; conditions: read-out: KB (antagonist)
[3] = test system: rest of the histamine and muscarinic GPCRs; test: G protein dissociation BRET assay; format: cell-based, human
[4] = test system: PFC pyramidal neurons; test: Spine density in prefrontal cortex; conditions: 1 mg/kg IP, ~26 h after treatment, both sexes
[5] = test system: rat cortical neurons; test: Dendritogenesis; format: cell-based
[6] = target: T1, 5-HT7a (Homo sapiens, UniProt P34969); test: G protein dissociation BRET assay; format: cell-based
T1 sequence (P34969 1-445 isoform P34969-2): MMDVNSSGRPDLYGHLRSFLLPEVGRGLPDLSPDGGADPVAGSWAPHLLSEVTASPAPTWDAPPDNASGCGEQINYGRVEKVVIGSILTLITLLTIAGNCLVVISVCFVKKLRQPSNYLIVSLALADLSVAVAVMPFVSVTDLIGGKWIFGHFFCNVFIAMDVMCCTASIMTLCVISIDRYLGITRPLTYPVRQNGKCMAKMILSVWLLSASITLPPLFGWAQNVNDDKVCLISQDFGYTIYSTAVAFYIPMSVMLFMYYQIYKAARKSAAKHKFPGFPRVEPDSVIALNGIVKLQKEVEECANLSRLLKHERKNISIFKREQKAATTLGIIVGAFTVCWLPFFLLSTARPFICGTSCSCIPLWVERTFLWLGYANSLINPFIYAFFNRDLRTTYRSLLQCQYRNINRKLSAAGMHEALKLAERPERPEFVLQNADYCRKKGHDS

[7] = target: OCT2 (Homo sapiens, UniProt O15244); test: Transporter panel: OCT2
OCT2, sequence (O15244 whole entry): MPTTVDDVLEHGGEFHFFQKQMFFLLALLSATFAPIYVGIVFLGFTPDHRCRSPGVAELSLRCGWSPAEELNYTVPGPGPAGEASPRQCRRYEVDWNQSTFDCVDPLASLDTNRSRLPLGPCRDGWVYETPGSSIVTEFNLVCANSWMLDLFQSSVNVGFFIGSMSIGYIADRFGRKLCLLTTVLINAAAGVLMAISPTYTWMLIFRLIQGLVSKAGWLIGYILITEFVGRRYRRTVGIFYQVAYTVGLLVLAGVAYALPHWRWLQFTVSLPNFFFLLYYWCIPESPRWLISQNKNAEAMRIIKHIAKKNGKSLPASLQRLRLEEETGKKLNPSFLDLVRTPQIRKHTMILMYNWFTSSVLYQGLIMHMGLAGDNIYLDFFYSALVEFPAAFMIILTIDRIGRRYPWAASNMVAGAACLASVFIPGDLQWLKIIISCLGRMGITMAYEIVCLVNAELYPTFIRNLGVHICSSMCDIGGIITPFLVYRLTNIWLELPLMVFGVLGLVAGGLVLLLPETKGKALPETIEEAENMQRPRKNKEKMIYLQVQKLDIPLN

[8] = target: Nav1.5 sodium channels (Homo sapiens, UniProt Q14524); test: Off-target panel: Nav1.5
[9] = Forced swim test; format: in vivo, C57BL/6J mice; conditions: 25 h after
[10] = target: 5-HT2B (Homo sapiens, UniProt P41595); test: 5-HT2B Gq dissociation, β-arrestin2 recruitment BRET and calcium flux assays
5-HT2B, sequence (P41595 whole entry): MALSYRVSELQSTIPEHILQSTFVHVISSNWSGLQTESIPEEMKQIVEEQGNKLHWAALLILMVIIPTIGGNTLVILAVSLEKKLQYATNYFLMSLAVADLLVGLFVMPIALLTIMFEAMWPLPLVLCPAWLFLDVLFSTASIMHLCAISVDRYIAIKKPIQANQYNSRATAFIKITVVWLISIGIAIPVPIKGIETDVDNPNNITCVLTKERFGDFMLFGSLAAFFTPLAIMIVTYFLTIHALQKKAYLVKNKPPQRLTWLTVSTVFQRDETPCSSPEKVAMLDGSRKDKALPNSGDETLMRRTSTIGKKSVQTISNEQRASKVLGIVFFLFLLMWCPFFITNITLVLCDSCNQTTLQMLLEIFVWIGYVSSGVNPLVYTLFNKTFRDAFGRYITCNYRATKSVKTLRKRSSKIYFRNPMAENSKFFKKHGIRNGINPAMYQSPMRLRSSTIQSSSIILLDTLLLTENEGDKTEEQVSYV

[11] = target: 5-HT4 (Homo sapiens, UniProt Q13639); test: G protein dissociation BRET assay; format: cell-based
[12] = target: T2, 5-HT2C (Homo sapiens, UniProt P28335); format: cell-based; conditions: Gq partial agonism
T2 sequence (P28335 33-458): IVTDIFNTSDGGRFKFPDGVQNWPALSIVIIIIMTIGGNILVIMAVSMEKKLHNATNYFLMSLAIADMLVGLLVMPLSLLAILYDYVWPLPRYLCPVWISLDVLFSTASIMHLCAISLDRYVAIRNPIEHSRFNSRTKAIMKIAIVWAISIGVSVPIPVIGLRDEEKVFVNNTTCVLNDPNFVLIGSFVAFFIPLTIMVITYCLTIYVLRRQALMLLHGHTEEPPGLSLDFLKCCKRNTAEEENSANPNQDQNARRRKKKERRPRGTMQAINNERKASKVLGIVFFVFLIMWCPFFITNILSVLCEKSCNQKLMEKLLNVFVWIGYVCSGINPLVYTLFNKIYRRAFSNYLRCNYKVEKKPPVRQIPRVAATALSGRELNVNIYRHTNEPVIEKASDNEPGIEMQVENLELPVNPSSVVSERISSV

[13] = test system: D1/5 subtypes; test: G protein dissociation BRET assay; format: cell-based, human
[14] = test system: HTR induced by DOI; test: Blockade of DOI-induced head-twitch response; conditions: DOI 1 mg/kg IP
[15] = target: β2 (Homo sapiens, UniProt P07550); test: G protein dissociation BRET assay; format: cell-based; conditions: read-out: KB (antagonist)
β2, sequence (P07550 whole entry): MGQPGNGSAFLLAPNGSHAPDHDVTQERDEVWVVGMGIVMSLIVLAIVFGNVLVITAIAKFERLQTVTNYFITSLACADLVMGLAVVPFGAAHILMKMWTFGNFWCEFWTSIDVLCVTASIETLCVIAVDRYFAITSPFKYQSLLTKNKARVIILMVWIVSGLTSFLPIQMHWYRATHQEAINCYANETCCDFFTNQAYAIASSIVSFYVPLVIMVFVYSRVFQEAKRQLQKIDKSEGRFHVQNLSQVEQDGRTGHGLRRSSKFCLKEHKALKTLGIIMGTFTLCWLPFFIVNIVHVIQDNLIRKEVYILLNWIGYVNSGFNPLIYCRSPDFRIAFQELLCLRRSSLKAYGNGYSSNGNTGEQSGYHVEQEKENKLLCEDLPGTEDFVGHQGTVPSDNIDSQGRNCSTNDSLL

[16] = Chronic variable stress: splash test; format: in vivo, female mice; conditions: 1X 3 mg/kg and 4X 1 mg/kg groups
[17] = target: T1, 5-HT7a; test: cAMP accumulation GloSensor assay; format: cell-based; conditions: read-out: EC50 (inverse agonism)
[18] = target: α1A (Homo sapiens, UniProt P35348); test: G protein dissociation BRET assay; format: cell-based; conditions: read-out: KB (antagonist)
α1A, sequence (P35348 whole entry): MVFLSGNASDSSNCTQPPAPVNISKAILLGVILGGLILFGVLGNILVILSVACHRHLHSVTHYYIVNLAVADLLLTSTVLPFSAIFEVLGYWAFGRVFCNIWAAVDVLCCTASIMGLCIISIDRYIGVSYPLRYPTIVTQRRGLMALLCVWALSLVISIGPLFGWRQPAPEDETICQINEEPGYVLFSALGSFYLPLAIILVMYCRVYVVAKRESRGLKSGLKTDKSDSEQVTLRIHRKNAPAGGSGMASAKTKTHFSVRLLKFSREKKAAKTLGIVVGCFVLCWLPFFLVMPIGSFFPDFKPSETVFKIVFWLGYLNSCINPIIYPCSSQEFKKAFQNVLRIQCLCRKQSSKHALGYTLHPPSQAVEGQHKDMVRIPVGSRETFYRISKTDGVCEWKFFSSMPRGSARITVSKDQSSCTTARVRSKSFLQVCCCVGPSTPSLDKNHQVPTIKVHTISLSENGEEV

[19] = target: α2C (Homo sapiens, UniProt P18825); test: G protein dissociation BRET assay; format: cell-based
α2C, sequence (P18825 whole entry): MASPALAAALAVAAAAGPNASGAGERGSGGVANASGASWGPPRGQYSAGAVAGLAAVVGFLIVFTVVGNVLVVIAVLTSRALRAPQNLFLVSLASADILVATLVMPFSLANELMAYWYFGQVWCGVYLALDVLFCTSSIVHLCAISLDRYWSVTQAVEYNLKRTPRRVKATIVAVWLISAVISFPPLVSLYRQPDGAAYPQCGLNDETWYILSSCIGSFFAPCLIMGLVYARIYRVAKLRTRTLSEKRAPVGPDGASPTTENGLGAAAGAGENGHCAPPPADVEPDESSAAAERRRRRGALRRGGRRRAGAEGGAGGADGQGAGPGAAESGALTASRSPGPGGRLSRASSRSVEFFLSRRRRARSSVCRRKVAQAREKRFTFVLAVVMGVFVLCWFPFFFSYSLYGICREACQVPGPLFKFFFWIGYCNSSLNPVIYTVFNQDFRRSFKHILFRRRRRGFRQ

[20] = Pharmacokinetics in plasma and brain of mice; conditions: for mean plasma Cmax / Cmax: IP 6.75 mg/kg; for mean terminal T1/2, plasma: range over doses; for Cmax: read-out: mean plasma Cmax
[21] = cited from earlier work
[22] = test system: primary rat cortical neurons; test: Cell viability of primary cortical neurons; format: cell-based; conditions: every tested concentration
[23] = test system: head-twitch response; test: Head-twitch response
[24] = Open field test; format: in vivo, C57BL/6J mice; conditions: 24 h after
[25] = target: 5-HT2A (Homo sapiens, UniProt P28223); format: cell-based; conditions: β-arrestin recruitment, normalized to 5-HT
5-HT2A, sequence (P28223 whole entry): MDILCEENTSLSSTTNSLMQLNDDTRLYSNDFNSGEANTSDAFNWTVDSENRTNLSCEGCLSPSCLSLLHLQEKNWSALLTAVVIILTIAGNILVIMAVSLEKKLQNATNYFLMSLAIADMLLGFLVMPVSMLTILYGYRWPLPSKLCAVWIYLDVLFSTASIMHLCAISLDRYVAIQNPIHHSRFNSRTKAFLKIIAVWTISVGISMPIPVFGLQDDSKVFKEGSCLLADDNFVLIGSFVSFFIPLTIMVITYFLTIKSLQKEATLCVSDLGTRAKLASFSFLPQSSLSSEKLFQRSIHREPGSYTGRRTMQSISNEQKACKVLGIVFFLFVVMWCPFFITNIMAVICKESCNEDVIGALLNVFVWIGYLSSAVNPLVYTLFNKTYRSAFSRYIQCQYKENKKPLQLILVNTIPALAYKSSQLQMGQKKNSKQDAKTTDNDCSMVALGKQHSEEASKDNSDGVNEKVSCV

[26] = target: α1B (Homo sapiens, UniProt P35368); test: G protein dissociation BRET assay; format: cell-based; conditions: read-out: KB (antagonist)
α1B, sequence (P35368 whole entry): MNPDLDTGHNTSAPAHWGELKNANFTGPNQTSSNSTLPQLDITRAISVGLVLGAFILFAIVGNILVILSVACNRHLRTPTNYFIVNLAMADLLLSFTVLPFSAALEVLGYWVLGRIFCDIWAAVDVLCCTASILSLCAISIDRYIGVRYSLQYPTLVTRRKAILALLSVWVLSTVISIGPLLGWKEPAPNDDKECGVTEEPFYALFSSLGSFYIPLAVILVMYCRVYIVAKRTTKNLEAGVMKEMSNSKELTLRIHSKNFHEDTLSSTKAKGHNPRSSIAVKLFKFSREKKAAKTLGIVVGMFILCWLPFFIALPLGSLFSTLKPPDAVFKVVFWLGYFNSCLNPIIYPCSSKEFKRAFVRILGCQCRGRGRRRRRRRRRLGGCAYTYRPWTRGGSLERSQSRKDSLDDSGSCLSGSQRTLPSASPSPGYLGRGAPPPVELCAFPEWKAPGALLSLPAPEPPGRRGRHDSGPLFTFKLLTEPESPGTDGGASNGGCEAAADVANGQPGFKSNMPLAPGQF

[27] = test system: HTR induced by DOI; test: Tolerance to DOI-induced HTR after repeated treatment; conditions: 3 mg/kg/day IP 7 days, DOI 1 mg/kg challenge 24 h later
[28] = target: D4 (Homo sapiens, UniProt P21917); test: G protein dissociation BRET assay; format: cell-based
[29] = Chronic variable stress: open field test; format: in vivo, female mice
[30] = test system: 33 human aminergic GPCRs; test: Pan-aminergic GPCR functional screen; format: cell-based; conditions: of 33 aminergic GPCR targets tested
[31] = target: 5-HT6 (Homo sapiens, UniProt P50406); test: G protein dissociation BRET assay; format: cell-based; conditions: read-out: EC50 (partial agonism)
5-HT6, sequence (P50406 whole entry): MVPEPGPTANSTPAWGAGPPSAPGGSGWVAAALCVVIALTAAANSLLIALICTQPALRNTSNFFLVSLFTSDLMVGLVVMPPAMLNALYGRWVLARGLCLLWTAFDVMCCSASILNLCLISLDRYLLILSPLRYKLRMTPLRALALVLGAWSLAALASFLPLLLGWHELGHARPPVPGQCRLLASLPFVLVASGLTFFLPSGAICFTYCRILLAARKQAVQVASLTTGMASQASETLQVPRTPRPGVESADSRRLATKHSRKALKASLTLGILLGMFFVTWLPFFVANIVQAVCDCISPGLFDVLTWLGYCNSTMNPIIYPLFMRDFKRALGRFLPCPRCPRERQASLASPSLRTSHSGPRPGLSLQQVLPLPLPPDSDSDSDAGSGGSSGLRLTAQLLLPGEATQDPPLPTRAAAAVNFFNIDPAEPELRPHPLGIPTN

[32] = test system: 44 known off-targets and other transporters; test: Eurofins panel of 44 known off-targets and other transporters
[33] = target: hERG (KV11.1) channel (Homo sapiens, UniProt Q12809); test: hERG inhibition
[34] = target: T2, 5-HT2C; format: cell-based
[35] = test system: 5-HT1 Gi/o-coupled receptor subtypes; test: G protein dissociation BRET assay; format: cell-based, human

## CCN(CC)C(=O)[C@@H]1C=C2c3cccc4[nH]c(Br)c(c34)C[C@H]2N(C)C1.CCN(CC)C(=O)[C@@H]1C=C2c3cccc4[nH]c(Br)c(c34)C[C@H]2N(C)C1.O=C(O)C(O)C(O)C(=O)O [2-Br-LSD, (6aR,9R)-2-bromolysergic acid diethylamide (2:1) (+)-tartrate]
[1]
  EMAX: 32%
[2]
  Kb: 79 nM
[3]
  agonism or antagonism at the rest of the histamine and muscarinic GPCRs: neither 2-Br-LSD nor LSD possessed weak agonism or antagonism
[4]
  average spine density in PFC: significant increase in average spine density
[5]; 1 and 10 μM, 3 h at DIV3
  total length of the dendritic arbor: increased the total length of the dendritic arbor
[5]; 3 h treatment DIV3, read DIV6, maximal at 1 and 10 μM
  number of dendrites crossing the Sholl radii: dose-dependent increase
[6]
  activity at 5-HT7a: act as antagonists
[7]
  IC50: 500 nM
[8]
  EC50: 1100 nM
[9]; females, 1 mg/kg IP
  decrease in immobility: 35.18 ± 10.03 s
[9]; males, 0.3 mg/kg IP
  decrease in immobility: 20.89 ± 8.249 s
[9]; males, 1 mg/kg IP
  decrease in immobility: 27.27 ± 8.226 s
[9]; males, 3 mg/kg IP
  decrease in immobility: 31.36 ± 8.226 s
[10]; Gq dissociation, β-arrestin2 recruitment, Gq-mediated calcium flux
  5-HT2B agonist activity: failed to induce
[10]; vs 5-HT
  5-HT2B antagonist activity: potent antagonist activity
[11]
  activity at 5-HT4: lack potent agonist or antagonist activity
[12]
  EMAX: 45.8%
[13]
  agonism at D1/5 subtypes: lacks strong agonism
[14]; 1 mg/kg IP pre-treatment
  time-course of blockade of the response to DOI: almost completely blocked during the first 10 minutes
[14]; 3 mg/kg IP pre-treatment, 30 min
  attenuation of the response to DOI: 76%
[15]
  Kb: 47 nM
[16]
  self-grooming time in CVS mice: partial reversal of CVS effects
[17]
  EC50: 5.1 nM
[18]
  Kb: 43 nM
[19]
  EC50: 10.4 nM
[19]; partial agonism
  EMAX: 40.5%
[20]; 4 h post-dosing
  level in the brain: below the lower limit of detection
[20]; IP
  plasma concentrations, male compared to female mice: 2–5 x
[20]; females
  mean plasma Cmax: 826.06 ng/mL
  Cmax: 2100 nM
[20]; males
  mean plasma Cmax: 1558.74 ng/mL
  Cmax: 3900 nM
[20]; IP, female mice
  mean terminal T1/2, plasma: 54 to 156 min
[20]; IP, females
  mean T1/2 in the brain: 24 to 78 min
[20]; IP, male and female mice
  mean brain Tmax: 10.2 min
[20]; IP, male mice
  mean terminal T1/2, plasma: 72 to 84 min
[20]; IP, males
  mean T1/2 in the brain: 42 to 60 min
[20]; IP, all groups except male mice at 0.75 mg/kg
  plasma Tmax: 12 min
[20]; IP, male mice, 0.75 mg/kg
  plasma Tmax: 30 min
[21]; 30 μg/kg orally on three occasions
  side effects in cluster headache patients: only minor side effects
[21]
  efficacy against cluster headaches: showed efficacy against cluster headaches
[21]; intravenous infusion of 18–22 μg/kg
  subjective effects in humans: more intense effects
[21]; oral doses 64–256 μg/kg
  subjective effects in humans: mild subjective responses
[22]
  neuronal viability: not different from control neurons
[23]; 0.1–10 mg/kg IP, male C57BL/6J mice, 60 min
  induction of the HTR: did not induce the HTR
[23]; raclopride 1 mg/kg, then 2-Br-LSD 3 mg/kg
  induction of the HTR after S-(–)-raclopride pretreatment: did not induce the HTR
[24]; 0.3, 1, 3 mg/kg IP, females and males
  locomotion (distance travelled): neither females nor males showed a significant increase in locomotion
[24]; female mice, 1 mg/kg IP
  increase in time in the arena center: 88.18 ± 18.89 s
[24]; male mice
  increased exploration of the open field center: not significant
[25]
  EMAX: 36.9%
[26]
  Kb: 38 nM
[27]
  tolerance on HTR after repeated treatment: no tolerance was observed
[28]
  EC50: 1.2 nM
[29]; 1X 3 mg/kg IP
  exploration of the arena center in CVS mice: partially restored the effect of CVS
[29]; 4X 1 mg/kg IP every 48 h
  exploration of the arena center in CVS mice: levels matching the control
[29]; 4X 1 mg/kg, 28 days after the last treatment
  time exploring the center in CVS mice: remained reversed
[30]
  number of aminergic GPCR targets with agonist activity: 14
[31]
  EC50: 0.35 nM
[32]
  preference for serotonin and dopamine GPCRs over off-targets: > 100 fold
[33]
  EC50: 31600 nM
[34]
  β-arrestin2 recruitment agonism: no detectable β-arrestin2 recruitment agonism
[35]
  agonism at all 5-HT1 subtypes: potent pan-agonism
